# Experimental data as given in patent US12539326B2, “Methods for treating Alzheimer's disease using semaglutide” (Novo Nordisk A/S, priority 2019, dated 2026).
# Tests used:
# [1] = tested on: Patients with type 2 diabetes at high risk for or with established cardiovascular disease; assay: Dementia in pooled double-blind RCTs (LEADER, SUSTAIN-6, PIONEER 6), GLP-1 receptor agonist versus placebo; assay type: in vivo, human; conditions: each RCT, active arm vs. placebo; for Dementia SMQ GLP-1 Receptor Agonists no. of events: median follow-up 3.8 years (LEADER), 2.1 years (SUSTAIN-6), 1.3 years (PIONEER 6)
# Protocol: Exposure to GLP-1 receptor agonist and subsequent diagnosis of dementia was assessed in data sources with long term treatment exposure including three pooled double-blind randomized controlled trials (RCTs) and a nationwide cohort of patients with diabetes. This was done with the aim of investigating whether use of GLP-1 receptor agonists reduces the onset of dementia in patients with diabetes.
# A triangulation approach integrating study designs and data sources with different key sources of potential bias was employed to obtain a more reliable answer. First, data was pooled from three large RCTs with GLP-1 receptor agonists; liraglutide (LEADER; 9,340 patients), subcutaneous semaglutide (SUSTAIN-6; 3,297 patients), and oral semaglutide (PIONEER 6; 3,183 patients). All three trials were multicenter, double-blind, placebo-controlled cardiovascular outcomes trials. Patients with type 2 diabetes at high risk for or with established cardiovascular disease were randomly assigned in a 1:1 ratio, to receive placebo or liraglutide (LEADER), or semaglutide (SUSTAIN-6; PIONEER 6) in addition to standard of care. In these trials, the treatment for diabetes (excluding GLP-1 receptor agonists, dipeptidyl peptidase-4 inhibitors (DPP4 inhibitors), and pramlintide) was adjusted or added in both arms, at the investigator's discretion, as previously described. The formulation tested in LEADER was an aqueous composition comprising liraglutide, disodium phosphate dihydrate, propylene glycol, and phenol at pH 8.15. The formulation tested in SUSTAIN-6 was an aqueous composition comprising semaglutide, disodium phosphate dihydrate, propylene glycol, and phenol at pH 7.4. The formulation tested in PIONEER was a tablet comprising semaglutide and SNAC. […]
# For the pooled RCTs, an intention-to-treat analysis was performed using Cox regression with treatment assignment as the only explanatory variable to determine the hazard ratio for developing dementia with GLP-1 receptor agonists versus placebo. […] The incidence of dementia with death as competing risk was calculated using the Aalen-Johansen estimator.
# [2] = tested on: SAMP8 mice; assay: Y-maze test (short-term memory) in SAMP8 mice; assay type: in vivo, mouse; conditions: SAMP8 mice at 16 weeks of age; 30 nmol/kg s.c. once a day; mean, SEM 1.6%; vehicle 42.8%; p<0.0001
# Text: Here, SAMP8 mice were utilized to characterize the impact of semaglutide treatment on memory deficits and cognitive decline. Two behavioural tests commonly used to assess cognitive deficits in rodents were employed to assay effects on short-term memory (Y-maze test) and long-term memory (step-through passive avoidance test). The Y-maze is test of short-term memory, assessing spatial working memory and exploratory behaviour by measuring spontaneous alternations, which is the frequency of entering a new arm of the maze rather than returning to one that was previously visited (described in methods). The step-through passive avoidance test measures associative long-term memory by assessing the learning of an association of an aversive stimulus to a particular context (described in methods). SAMP8 mice have measurable deficits in both tests as they age. […]
# Testing in the Y-maze was performed at 8 weeks of age and 16 weeks of age, at approximately 15 and 71 days following treatment initiation respectively. […] The series of arm entries including possible returns into the same arm was monitored and alternation was defined as entries into all three arms on consecutive occasions. The number of maximum alternations was therefore the total number of arm entries minus two and the percentage of alternation was be calculated as (actual alternations/maximum alternations)×100.
# [3] = tested on: microglial inflammatory marker Iba1 in the hippocampus; assay: LPS-induced neuroinflammation in mice, Iba1 immunohistochemistry of the hippocampus; assay type: in vivo, mouse; conditions: C57BL/6 mice, Day 28, LPS+semaglutide 30 nmol/kg s.c. once per day; mean, SEM 0.49%; LPS+vehicle 12.17%; p<0.01
# Text: LPS-induced neuroinflammation is used as a non-genetic model of Alzheimer's disease in rodents. LPS is an endotoxin from gram-negative bacteria that provides a persistent inflammatory stimulus activating brain immune cells (neuroimmune cells). Microglia are a brain immune cell type activated by LPS, and the degree of neuroinflammation can be assessed by the area of microglia in brain tissue as measured by the microglia-specific marker ionized calcium binding adaptor molecule 1 (Iba1).
# Here, LPS-induced neuroinflammation in mice was used to assess the impact of semaglutide on attenuating brain inflammation in the hippocampus, a brain region involved in memory and learning which is deteriorated in Alzheimer's Disease.
# The experiment was carried out using C57BL/6 mice at 8-10 weeks of age. […]
# Immediately after termination, whole brains were collected for immunohistochemical (IHC) analyses of neuroinflammation markers. […] The primary antibody was detected using a linker secondary antibody followed by amplification using a polymeric HRP-linker antibody conjugate. […]
# Quantitative assessment of Iba1 signal was performed to measure the area of microglia in the hippocampus of the tissue section. […] The quantitative estimates of IHC-positive staining were calculated as an area fraction (AF) of the total tissue area where: […]
# [4] = tested on: SAMP8 mice; assay: Step-through passive avoidance test (long-term memory) in SAMP8 mice; assay type: in vivo, mouse; conditions: SAMP8 mice at 18 weeks of age, retention test, 30 nmol/kg s.c. once a day, mean
# Text: Here, SAMP8 mice were utilized to characterize the impact of semaglutide treatment on memory deficits and cognitive decline. Two behavioural tests commonly used to assess cognitive deficits in rodents were employed to assay effects on short-term memory (Y-maze test) and long-term memory (step-through passive avoidance test). The Y-maze is test of short-term memory, assessing spatial working memory and exploratory behaviour by measuring spontaneous alternations, which is the frequency of entering a new arm of the maze rather than returning to one that was previously visited (described in methods). The step-through passive avoidance test measures associative long-term memory by assessing the learning of an association of an aversive stimulus to a particular context (described in methods). SAMP8 mice have measurable deficits in both tests as they age.
# The experiment was carried out using SAMP8 mice with the following treatment groups: SAMP8 vehicle treated (n=24) and SAMP8 semaglutide (30 nmol/kg) treated (n=11). […]
# The step through passive avoidance performance was performed at 18 weeks of age. […] The step-through latency was recorded up to 300 s, defined as the time it took the mouse to enter the darkened compartment during the retention test. Escape latency was as recorded, defined as the time in the retention test to escape the darkened chamber following the application of a footshock.
substance,measurement,setting,value
"N-epsilon26-[2-(2-{2-[2-(2-{2-[(S)-4-Carboxy-4-(17-carboxyheptadecanoylamino)butyrylamino] ethoxy}ethoxy)acetylamino]ethoxy} ethoxy)acetyl][Aib8,Arg34]GLP-1-(7-37) [semaglutide]",Dementia SMQ GLP-1 Receptor Agonists no. of events,[1]; listed as Semaglutide (oral),0
same,Dementia SMQ GLP-1 Receptor Agonists no. of events,[1]; listed as Semaglutide (s.c),3
same,Dementia SMQ GLP-1 Receptor Agonists rate,[1]; unit not printed in table (b13 gives pooled rates per 1000 patient-years),0.88
same,percentage alternation behaviour in the Y-maze,[2],79.1%
same,hippocampal Iba1 area (area fraction),[3],8.53%
same,escape latency,"[4]; SEM 3.0 seconds, vehicle 88.8 seconds, p=0.01",19.0 s
same,step-through latency,"[4]; SEM 14.5 seconds, vehicle 109.8 seconds, p<0.0001",260.5 s
